In patent publication US10624278B2, “Cultivation method for the rapid propagation of Davidia involucrata winter buds” (Mianyang Teachers' College, priority 2017, dated 2020):

Experiments:
Format in all cases: in vivo
[1] = test system: Davidia involucrata winter buds; assay: disinfecting and sterilizing of the winter buds
Description: disinfecting and sterilizing of the winter buds: immersing the plurality of winter buds collected in the field into a detergent solution with a concentration of […] for 2 minutes, gently cleaning the bud scales using a soft brush, rinsing for 2 hours with running water, and then immersing the winter buds using the 0.1% mercuric chloride solution for 20 minutes on a clean bench, rinsing with sterile water for more than 5 times, blotting up the water on the surface of the explants with sterile filter paper, stripping up all the scales of the winter buds using a tweezer to obtain the buds, treating with 75% ethanol and mercuric chloride solution or treating with mercuric chloride solution only. Wherein each treatment is inoculated into 30 bottles and 2 explants in each bottle. The specific progress is as follows: […]

[2] = test system: Davidia involucrata saplings; assay: rooting cultivation (orthogonal experiment); parameters: unit not given here; settings: for K1: mean rooting ratio at level 1 of the factor (¼MS, IBA 1.0, 6-BA 0, AC 0.5); for K2: mean rooting ratio at level 2 of the factor (WPM, IBA 2.0, 6-BA 1.0, AC 1.0); for K3: mean rooting ratio at level 3 of the factor (White, IBA 3.0, 6-BA 1.5, AC 1.5); for R: range of K values of the factor, rooting ratio
Description: inoculating the plurality of Davidia involucrata saplings in good condition obtained in step (5) in the White, WPM and 1/4 MS medium (See Table 10) containing different concentrations of IBA, 6-BA and AC at the temperature of 24±1° C. and illuminating for 10 hours per day at 2000 1× to cultivate the plurality of Davidia involucrata saplings in good condition obtained in step (5) until rooting. Analyzing the rooting results (See Table 11).

[3] = test system: Davidia involucrata saplings; assay: cultivating the strong seedlings; parameters: unit not given here; settings: for K1: mean average height at level 1 of the factor (GA3 0.5, NAA 0.5, 6-BA 0.2); for K2: mean average height at level 2 of the factor (GA3 1.0, NAA 1.0, 6-BA 0.6); for K3: mean average height at level 3 of the factor (GA3 1.5, NAA 1.5, 6-BA 1.0); for R: range of K values of the factor, average height
Description: inoculating the plurality of Davidia involucrata saplings obtained in step (4) in nine groups of WPM medium (See Table 8) containing different concentrations of NAA, 6-BA and GA3 at the temperature of 24±1° C. and illuminating for 10 hours per day at 2000 1× to cultivate the plurality of Davidia involucrata saplings obtained in step (4) for 36 days. The amount of AC added for each group of WPM medium is 1.0 g/L. Calculating the average height of the saplings (See Table 9).

[4] = Disposal 1: mercuric chloride only, treating time 4 min
[5] = Disposal 2: mercuric chloride only, treating time 5 min
[6] = Disposal 3: mercuric chloride only, treating time 6 min
[7] = Disposal 4: mercuric chloride only, treating time 7 min
[8] = Disposal 5: mercuric chloride only, treating time 8 min

Structure (SMILES) | K1 [2] | K2 [2] | K3 [2] | R [2] | K1 [3] | K2 [3] | K3 [3] | R [3] | also measured
[Cl][Hg][Cl] [0.01% mercuric chloride solution, mercuric chloride] |  |  |  |  |  |  |  |  | Death rate (%) [1, 4]: 3%; Pollution rate (%) [1, 4]: 38%; Death rate (%) [1, 5]: 5%; Pollution rate (%) [1, 5]: 27.2%; Death rate (%) [1, 6]: 6%; Pollution rate (%) [1, 6]: 18%; Death rate (%) [1, 7]: 36%; Pollution rate (%) [1, 7]: 16%; Death rate (%) [1, 8]: 45%; Pollution rate (%) [1, 8]: 10%
c1ccc(CNc2ncnc3[nH]cnc23)cc1 [6-BA] | 48.340 | 67.907 | 57.150 | 19.567 | 1.820 | 1.697 | 1.897 | 0.200 | 
C=C1C[C@]23C[C@@]1(O)CC[C@H]2[C@@]12C=C[C@H](O)[C@@](C)(C(=O)O1)[C@H]2[C@@H]3C(=O)O [GA3] |  |  |  |  | 1.663 | 2.037 | 1.713 | 0.374 | 
O=C(O)CCCc1c[nH]c2ccccc12 [IBA] | 55.663 | 62.337 | 55.397 | 6.940 |  |  |  |  | 
O=C(O)Cc1cccc2ccccc12 [NAA] |  |  |  |  | 1.537 | 2.067 | 1.810 | 0.530 | 
